Reference: patent EP1370276B1, “INTERCELLULAR COMMUNICATION FACILITATING COMPOUNDS AND THEIR MEDICAL USE” (Zealand Pharma A/S, priority 2001, dated 2002)

Legend:
Type in all cases: cell-based
human osteoblastic cells [1] = experiment: Intercellular calcium waves after mechanical stimulation, human osteoblastic cells
Description: (§1) Human osteblast cells (hOB): Cells were isolated from human bone marrow obtained by puncture of the posterior iliac spine of healthy volunteers (aged 20-36): 10-15 ml marrow material was collected in 15 ml PBS+Ca,Mg (Life Technologies, Cat.No. 14040) with 100 U/ml Heparin (Sigma, Cat.No. H-3149). The mononuclear fraction of the marrow was isolated on a Lymphoprep gradient (Nycomed Pharma, Cat.No. 1001967), by centrifugation at 2200 rpm for 30 min. After harvesting, the mononuclear fraction was washed once with culture medium and centrifuged at 1800 rpm for 10 min. Subsequently cells were counted and plated in culture medium at 8x10^6 cells/100 mm dish. hOB medium (all reagents obtained from Life Technologies): MEM w/o Phenol Red w/ Glutamax (Cat.No. 041-93013) supplemented with 10% heat inactivated fetal calf serum (Cat.No. 10106) and 0.1% Penicillin/Streptomycin (Cat.No. 15140). Medium was changed the following day and the cells were cultured at 37°C in 5%CO2 with medium change every 7 days. After 3-4 weeks of culture the cells had reached 70% confluence. The medium was then supplemented with 100 nM Dexamethasone (Sigma, Cat.No. D-4902) for 7 days. Cells were then plated for video imaging experiments: a 25 mm #1 glass coverslip was
(§2) placed in a 35 mm dish (or each well of a 6-well multidish), cells were plated at 2.5×10^5 cells/coverslip and cultured for 2-3 days before use. […]

human osteoblast = experiment: Lucifer Yellow microinjection dye transfer, human osteoblasts; details: 10 minutes, after 48 hours hypoxia 3-6% O2 (7 cells before)
Description: as §1, §2

human osteoblastic cells [2] = experiment: DDT-induced uncoupling, Lucifer Yellow dye transfer in human osteoblastic cells; details: 10^-8 mol/l, 10 minutes, after DDT 13 µM for 60 minutes
Description: as §1, with “Human osteoblast cells: Cells were” for “Human osteblast cells (hOB): Cells were”, “15 ml PBS + Ca, Mg (Life Technologies,” for “15 ml PBS+Ca,Mg (Life Technologies,”, “coverslip was placed in a 35 mm dish (or each well of a 6-well multidish), cells were plated at 2.5x10^5 cells/coverslip and cultured for 2-3 days before use. […]” for “coverslip was”

Ac-D-Tyr-D-Pro-D-4Hyp-Gly-D-Ala-Gly-NH2 [Compound 2]
average number of cells in the calcium wave (human osteoblastic cells [1]; 10^-8 M, medium without glucose, after ATP desensitization (1.4 cells before)): 2.9 cells | average number of cells in the calcium wave (human osteoblastic cells [1]; 10^-8 mol/l, 10 minutes, after ATP desensitization (4.5 cells before)): 6.2 cells | dye transfer (number of cells containing Lucifer Yellow) (human osteoblast): 9 cells | cell-to-cell dye transfer, median (human osteoblastic cells [2]): 8.3 cells
